Target: hCereblon(M1-L442)_hDDB1(M1-H1140) (Homo sapiens (Human), UniProt Q96SW2)
Assay: Fluorescence direct binding (tryptophan fluorescence titration)
Details: 20° C., excitation 280 nm, emission 340 nm, 50 mM Hepes 7.4 200 mM NaCl; read-out: Fluorescence h-Cereblon_DDB1 Mean Kd_EQ
Protocol: Fluorescence Direct Binding Protocol
Determination of the affinities of compounds to protein containing one or more tryptophan is measurable by monitoring the fluorescence emission in direct mode. The measurements, depending on the protein available amounts, were performed either manually in a cuvette on ISS-PCI photon counting spectrofluorometer or automatically in well plates on a fluorescence plate reader device. Fluorescence titrations were performed at 20° C. in the chosen binding assay buffer by using a defined constant protein concentration against ligand concentration variations. Small aliquots of known ligand concentration solubilized in DMSO were added and the fluorescence, excited at 280 nm, was recorded at 340 nm.

Sequence of hCereblon(M1-L442)_hDDB1(M1-H1140) (Q96SW2 whole entry, looked up): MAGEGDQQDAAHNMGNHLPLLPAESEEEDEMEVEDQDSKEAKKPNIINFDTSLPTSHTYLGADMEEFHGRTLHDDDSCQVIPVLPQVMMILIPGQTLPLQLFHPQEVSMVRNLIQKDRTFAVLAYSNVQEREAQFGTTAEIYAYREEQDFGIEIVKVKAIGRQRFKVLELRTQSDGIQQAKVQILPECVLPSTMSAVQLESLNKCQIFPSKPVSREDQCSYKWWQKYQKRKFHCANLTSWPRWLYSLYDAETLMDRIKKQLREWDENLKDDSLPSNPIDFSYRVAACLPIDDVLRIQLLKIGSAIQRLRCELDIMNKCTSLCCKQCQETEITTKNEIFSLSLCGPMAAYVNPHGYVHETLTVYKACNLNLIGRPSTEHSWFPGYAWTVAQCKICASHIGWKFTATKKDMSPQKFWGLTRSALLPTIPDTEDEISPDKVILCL
Sequence of hCereblon(M1-L442)_hDDB1(M1-H1140) (Q16531 whole entry partner, looked up): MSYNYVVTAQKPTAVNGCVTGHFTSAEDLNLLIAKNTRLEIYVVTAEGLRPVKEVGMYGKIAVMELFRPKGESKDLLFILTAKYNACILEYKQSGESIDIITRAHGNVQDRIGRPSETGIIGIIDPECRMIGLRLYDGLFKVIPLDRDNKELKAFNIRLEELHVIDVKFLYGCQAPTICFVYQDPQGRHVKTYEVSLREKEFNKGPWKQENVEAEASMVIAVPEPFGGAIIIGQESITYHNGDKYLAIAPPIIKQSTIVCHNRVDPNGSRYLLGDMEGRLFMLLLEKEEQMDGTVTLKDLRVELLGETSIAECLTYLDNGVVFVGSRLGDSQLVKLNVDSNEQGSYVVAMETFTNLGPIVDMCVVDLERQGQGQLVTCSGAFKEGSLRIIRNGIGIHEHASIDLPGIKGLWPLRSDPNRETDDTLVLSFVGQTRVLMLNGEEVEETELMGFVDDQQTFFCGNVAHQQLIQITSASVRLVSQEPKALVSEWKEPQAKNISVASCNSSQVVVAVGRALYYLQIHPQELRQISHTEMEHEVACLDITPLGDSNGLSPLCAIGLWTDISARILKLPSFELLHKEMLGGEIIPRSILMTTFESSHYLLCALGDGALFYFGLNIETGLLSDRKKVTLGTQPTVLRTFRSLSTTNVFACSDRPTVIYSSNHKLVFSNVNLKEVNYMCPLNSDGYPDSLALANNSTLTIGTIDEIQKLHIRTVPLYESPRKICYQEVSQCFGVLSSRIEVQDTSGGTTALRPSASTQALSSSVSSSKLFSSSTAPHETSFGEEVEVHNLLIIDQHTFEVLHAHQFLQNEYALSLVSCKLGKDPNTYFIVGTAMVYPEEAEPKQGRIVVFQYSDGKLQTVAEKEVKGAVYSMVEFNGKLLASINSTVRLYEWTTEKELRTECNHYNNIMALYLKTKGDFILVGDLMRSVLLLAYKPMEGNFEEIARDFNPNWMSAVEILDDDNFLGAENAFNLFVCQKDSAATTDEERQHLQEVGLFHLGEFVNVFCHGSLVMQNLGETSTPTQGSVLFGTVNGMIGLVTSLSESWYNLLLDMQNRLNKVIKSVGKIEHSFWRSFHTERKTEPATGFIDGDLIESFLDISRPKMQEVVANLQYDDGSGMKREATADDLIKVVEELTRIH

SMILES	Kd
COC(=O)c1ccc(N2CCC3(CCC(=O)NC3=O)C2)nc1 (stereo not shown) [Example 6, methyl 6-(6,8-dioxo-2,7-diazaspiro[4.5]decan-2-yl) nicotinate]	< 1 nM
COC(=O)c1cccc(N2CCC3(CCC(=O)NC3=O)C2)n1 (stereo not shown) [Example 32, methyl 6-(6,8-dioxo-2,7diazaspiro[4.5]decan-2-yl)picolinate]	1 nM
O=C1NC(=O)C2(CCN(c3ccc([N+](=O)[O-])cc3)CC2)N1 [Example 72, 8-(4-nitrophenyl)-1,3,8-triazaspiro[4.5] decane-2,4-dione]	< 1 nM
O=C1NC(=O)C2(CCN(C(=O)c3ccccc3)CC2)N1 [Example 60, 8-benzoyl-1,3,8-triazaspiro[4.5]decane-2,4-dione]	2 nM
O=C1NC(=O)C2(CCN(c3nc4ccccc4s3)CC2)N1 [Example 61, 8-(benzo[d]thiazol-2-yl)-1,3,8-triazaspiro[4.5]decane-2,4-dione]	2 nM
CC(C)(C)OC(=O)c1ccc(N2CCC3(CCC(=O)NC3=O)C2)nc1 (stereo not shown) [Example 24, tert-butyl 6-(6,8-dioxo-2,7-diazaspiro[4.5]decan-2-yl) nicotinate]	2 nM
CC(C)(C)OC(=O)Nc1nc2ccc(C(=O)N3CCC4(CCC(=O)NC4=O)C3)cc2s1 (stereo not shown) [Example 54, tert-butyl (6-(6,8-dioxo-2,7-diazaspiro[4.5]decane-2-carbonyl)benzo[d]thiazol-2-yl)carbamate]	4 nM
O=C1CC2(CCN(C(=O)[C@@H]3CCCc4ccccc43)CC2)C(=O)N1 (single isomer, unassigned) [Example 78]	4 nM
COC(=O)c1cnc(N2CCC3(CCC(=O)NC3=O)C2)s1 (stereo not shown) [Example 23, methyl 2-(6,8-dioxo-2,7-diazaspiro[4.5]decan-2-yl)thiazole-5-carboxylate]	8 nM
O=C1CC2(CCN(c3nc4ccccc4s3)CC2)C(=O)N1 [Example 71, 8-(benzo[d]thiazol-2-yl)-2,8-diazaspiro[4.5] decane-1,3-dione]	2 nM
CN1CC2(CCC(=O)NC2=O)CC1=O (stereo not shown) [Example 2, 2-methyl-2,7-diazaspiro[4.5] decane-3,6,8-trione]	159 nM
O=C1CCC2(CCN(c3nc4cc([N+](=O)[O-])ccc4[nH]3)C2)C(=O)N1 (single isomer, unassigned) [Example 34, 2-(5-nitro-1H-benzo[d]imidazol-2-yl)-2,7-diazaspiro[4.5] decane-6,8-dione]	5 nM
COC(=O)c1ccc(C(=O)N2CCC3(CCC(=O)NC3=O)C2)cc1 (stereo not shown) [Example 28, methyl 4-(6,8-dioxo-2,7-diazaspiro[4.5]decane-2-carbonyl) benzoate]	13 nM
O=C1CCC2(CCN(c3nc4cc([N+](=O)[O-])ccc4[nH]3)C2)C(=O)N1 (stereo not shown) [Example 9, 2-(5-nitro-1H-benzo[d]imidazol-2-yl)-2,7-diazaspiro [4.5]decane-6,8-dione]	8 nM
O=C1CC2(CCN(C(=O)[C@H]3CCCc4ccccc43)CC2)C(=O)N1 (single isomer, unassigned) [Example 77]	6 nM
O=C1CCC2(CCN(C(=O)c3ccccc3)C2)C(=O)N1 (stereo not shown) [Example 36, 2-benzoyl-2,7-diazaspiro[4.5] decane-6,8-dione]	< 1 nM
Cc1sc2c(c1C)C(c1ccc(Cl)cc1)=NC(CC(=O)NCCCCCCCC(=O)Nc1cccc(C(=O)N3CCC4(CCC(=O)NC4=O)C3)c1)c1nnc(C)n1-2 (stereo in doubt) [Example 57, 8-(2-((R)-4-(4-chlorophenyl)-2,3,9-trimethyl-6H-thieno[3,2-f] [1,2,4]triazolo [4,3-a] [1,4]diazepin-6-yl)acetamido)-N-(3-(6,8-dioxo-2,7-diazaspiro[4.5]decane-2-carbonyl)phenyl) octanamide]	106 nM
O=C1CCC2(CCN(C(=O)c3cccc4c3CC(=O)N4)C2)C(=O)N1 (stereo not shown) [Example 27, 2-(2-oxoindoline-4-carbonyl)-2,7-diazaspiro[4.5] decane-6,8-dione]	47 nM
CC(=O)Nc1nc2ccc(C(=O)N3CCC4(CCC(=O)NC4=O)C3)cc2s1 (stereo not shown) [Example 51, N-(6-(6,8-dioxo-2,7-diazaspiro[4.5]decane-2-carbonyl)benzo[d]thiazol-2-yl)acetamide]	94 nM
COC(=O)c1ccc2nc(N3CCC4(CCC(=O)NC4=O)C3)sc2c1 (stereo not shown) [Example 21, methyl 2-(6,8-dioxo-2,7-diazaspiro [4.5]decan-2-yl)benzo[d]thiazole-6-carboxylate]	8 nM
CC(=O)Nc1cccc(C(=O)N2CCC3(CCC(=O)NC3=O)C2)c1 (stereo not shown) [Example 37, N-(3-(6,8-dioxo-2,7-diazaspiro[4.5]decane-2-carbonyl)phenyl)acetamide]	6 nM
O=C1CCC2(CCN(C(=O)c3coc4ccccc34)C2)C(=O)N1 (stereo not shown) [Example 44, 2-(benzofuran-3-carbonyl)-2,7-diazaspiro[4.5] decane-6,8-dione]	9 nM
COC(=O)c1ccc(N2CCC3(CC2)CC(=O)NC3=O)nc1 [Example 74, methyl 6-(1,3-dioxo-2,8-diazaspiro[4.5]decan-8-yl)nicotinate]	11 nM

SMILES	Kd
CC(=O)N1CCc2c(C(=O)N3CCC4(CCC(=O)NC4=O)C3)cccc21 (stereo not shown) [Example 35, 2-(1-acetylindoline-4-carbonyl)-2,7-diazaspiro[4.5] decane-6,8-dione]	< 1 nM
O=C1CCC2(CCN(c3nc4cnccc4s3)C2)C(=O)N1 (stereo not shown) [Example 20, 2-(thiazolo[4,5-c]pyridin-2-yl)-2,7-diazaspiro[4.5] decane-6,8-dione]	6 nM
CC(=O)Nc1nc2cc(C(=O)N3CCC4(CCC(=O)NC4=O)C3)ccc2s1 (stereo not shown) [Example 50, N-(5-(6,8-dioxo-2,7-diazaspiro[4.5]decane-2-carbonyl)benzo[d]thiazol-2-yl)acetamide]	45 nM
O=C1CC2(CCN(C(=O)c3ccccc3)CC2)C(=O)N1 [Example 75, 8-benzoyl-2,8-diazaspiro[4.5] decane-1,3-dione]	< 1 nM
O=C1CCC2(CCNC2)C(=O)N1 (stereo not shown) [Example 1, 2,7-diazaspiro [4.5]decane-6,8-dione]	84 nM
O=C1NC(=O)C2(CCN(C(=O)c3ccc4scnc4c3)CC2)N1 [Example 81, 8-(benzo[d]thiazole-5-carbonyl)-1,3,8-triazaspiro[4.5] decane-2,4-dione]	6 nM
Nc1nc2ccc(C(=O)N3CCC4(CCC(=O)NC4=O)C3)cc2s1 (stereo not shown) [Example 55, 2-(2-aminobenzo [d]thiazole-6-carbonyl)-2,7-diazaspiro [4.5]decane-6,8-dione]	26 nM
O=C1NC(=O)C2(CCN(C(=O)[C@H]3CCCc4ccccc43)CC2)N1 [Example 58, (S)-8-(1,2,3,4-tetrahydronaphthalene-1-carbonyl)-1,3,8-triazaspiro[4.5]decane-2,4-dione]	4 nM
COC(=O)c1cccc2nc(N3CCC4(CCC(=O)NC4=O)C3)[nH]c12 (stereo not shown) [Example 13, methyl 2-(6,8-dioxo-2,7-diazaspiro[4.5]decan-2-yl)-1H-benzo[d]imidazole-7-carboxylate]	96 nM
O=C1CCC2(CCN(C(=O)c3cccc4c3CCN4)C2)C(=O)N1 (stereo not shown) [Example 40, 2-(indoline-4-carbonyl)-2,7-diazaspiro[4.5] decane-6,8-dione]	6 nM
O=C1CCC2(CCN(C(=O)c3ccc4ncoc4c3)C2)C(=O)N1 (stereo not shown) [Example 46, 2-(benzo[d]oxazole-6-carbonyl)-2,7-diazaspiro[4.5] decane-6,8-dione]	10 nM
O=C1CCC2(CCN(c3ccc([N+](=O)[O-])cn3)C2)C(=O)N1 (stereo not shown) [Example 30, 2-(5-nitropyridin-2-yl)-2,7-diazaspiro [4.5]decane-6,8-dione]	1 nM
O=C1CCC2(CCN(C(=O)c3ccc4c(c3)NCC4)C2)C(=O)N1 (stereo not shown) [Example 41, 2-(indoline-6-carbonyl)-2,7-diazaspiro[4.5] decane-6,8-dione]	75 nM
CC(C)(C)OC(=O)Nc1nc2cc(C(=O)N3CCC4(CCC(=O)NC4=O)C3)ccc2s1 (stereo not shown) [Example 53, tert-butyl (5-(6,8-dioxo-2,7-diazaspiro[4.5]decane-2-carbonyl)benzo[d]thiazol-2-yl)carbamate]	6 nM
Cn1c(N2CCC3(CCC(=O)NC3=O)C2)nc2ccccc21 (stereo not shown) [Example 19, 2-(1-methyl-1H-benzo[d]imidazol-2-yl)-2,7-diazaspiro[4.5] decane-6,8-dione]	30 nM
O=C1CCC2(CCN(c3nc4ccccc4s3)C2)C(=O)N1 (stereo not shown) [Example 12, 2-(benzo[d]thiazol-2-yl)-2,7-diazaspiro [4.5]decane-6,8-dione]	1 nM
CC(=O)N1CCc2ccc(C(=O)N3CCC4(CCC(=O)NC4=O)C3)cc21 (stereo not shown) [Example 42, 2-(1-acetylindoline-6-carbonyl)-2,7-diazaspiro[4.5] decane-6,8-dione]	8 nM
O=C1CCC2(CCN(c3nc4cc([N+](=O)[O-])ccc4[nH]3)C2)C(=O)N1 (single isomer, unassigned) [Example 33, 2-(5-nitro-1H-benzo[d]imidazol-2-yl)-2,7-diazaspiro[4.5] decane-6,8-dione]	< 1 nM
O=C1NC(=O)C2(CCN(c3ccc([N+](=O)[O-])cn3)CC2)N1 [Example 69, 8-(5-nitropyridin-2-yl)-1,3,8-triazaspiro[4.5] decane-2,4-dione]	7 nM
O=C1CCC2(CCN(C(=O)c3cnn4ccccc34)C2)C(=O)N1 (stereo not shown) [Example 45, 2-(pyrazolo[1,5-a]pyridine-3-carbonyl)-2,7-diazaspiro[4.5] decane-6,8-dione]	< 1 nM
O=C1CCC2(CCN(C(=O)c3ccc4scnc4c3)C2)C(=O)N1 (stereo not shown) [Example 29, 2-(benzo[d]thiazole-5-carbonyl)-2,7-diazaspiro[4.5] decane-6,8-dione]	< 1 nM
O=C1CCC2(CCN(C(=O)c3cccc4[nH]ncc34)C2)C(=O)N1 (stereo not shown) [Example 38, 2-(1H-indazole-4-carbonyl)-2,7-diazaspiro[4.5] decane-6,8-dione]	84 nM
O=C1CC2(CCN(c3ccc([N+](=O)[O-])cn3)CC2)C(=O)N1 [Example 70, 8-(5-nitropyridin-2-yl)-2,8-diazaspiro[4.5] decane-1,3-dione]	23 nM

Reference: patent US11584748B2, “Spirocyclic compounds” (priority 2018, dated 2023)
